Measured values taken from ChEMBL document CHEMBL6114940, “Exploring the pharmaceutical potential of ammonium organotrifluoroborate functional group: Comprehensive chemical, metabolic, and plasma stability evaluation” (Eur J Med Chem, 2024).
Activity calls are given as the source filed them. No cut-off for these calls is given here.

Experiments:
[1] = Stability of compound in 0.5 M NaOH assessed as N,N,N-trimethyl-1-(1-(2-(2-(2-(((2R,3R,4S,5S,6R)-3,4,5-trihydroxy-6-(hydroxymethyl)tetrahydro-2H-pyran-2-yl)oxy)ethoxy)ethoxy)ethyl)-1H-1,2,3-triazol-4-yl)methanaminium formation incubated for 72 hrs by LC-MS analysis; format: physicochemical
[2] = Stability of compound in 0.05 M HCL assessed as 1-borono-N,N-dimethyl-N-((1-(2-(2-(2-(((2R,3R,4S,5S,6R)-3,4,5-trihydroxy-6-(hydroxymethyl)tetrahydro-2H-pyran-2-yl)oxy)ethoxy)ethoxy)ethyl)-1H-1,2,3-triazol-4-yl)methyl)methanaminium formation incubated for 72 hrs by LC-MS analysis; format: physicochemical; details: buffer
[3] = Stability of compound in 0.9 % saline solution assessed as 1-borono-N,N-dimethyl-N-((1-(2-(2-(2-(((2R,3R,4S,5S,6R)-3,4,5-trihydroxy-6-(hydroxymethyl)tetrahydro-2H-pyran-2-yl)oxy)ethoxy)ethoxy)ethyl)-1H-1,2,3-triazol-4-yl)methyl)methanaminium formation incubated for 72 hrs by LC-MS analysis; format: physicochemical; details: buffer
[4] = Stability of compound in 50 mM Tris-HCL buffer at pH 7.4 assessed as solvolysis constant (K) incubated for 72 hrs by LC-MS analysis; format: physicochemical; details: pH 7.4, 72 h
[5] = Stability of compound in 0.9 % saline solution assessed as solvolysis constant (K) incubated for 72 hrs by LC-MS analysis; format: physicochemical; details: buffer
[6] = Metabolic stability in mouse liver microsomes assessed as drug hydrolysis 1-borono-N,N-dimethyl-N-((1-(2-(2-(2-(((2R,3R,4S,5S,6R)-3,4,5-trihydroxy-6-(hydroxymethyl)tetrahydro-2H-pyran-2-yl)oxy)ethoxy)ethoxy)ethyl)-1H-1,2,3-triazol-4-yl)methyl)methanaminium formation incubated for 1 hrs by LC-MS/MS analysis; format: ADME, Microsome
[7] = Stability of compound in 0.05 M HCL assessed as solvolysis constant (K) incubated for 72 hrs by LC-MS analysis; format: physicochemical; design: unit not given beside the values; details: buffer
[8] = Stability of compound in 20 mM CH3COONH4 buffer at pH 5.8 assessed as 1-borono-N,N-dimethyl-N-((1-(2-(2-(2-(((2R,3R,4S,5S,6R)-3,4,5-trihydroxy-6-(hydroxymethyl)tetrahydro-2H-pyran-2-yl)oxy)ethoxy)ethoxy)ethyl)-1H-1,2,3-triazol-4-yl)methyl)methanaminium formation incubated for 72 hrs by LC-MS analysis; format: physicochemical; details: pH 5.8, 72 h
[9] = Stability of compound in 0.5 M NaOH assessed as half life incubated for 72 hrs by LC-MS analysis; format: physicochemical
[10] = Stability of compound in 50 mM Tris-HCL buffer at pH 7.4 assessed as half life incubated for 72 hrs by LC-MS analysis; format: physicochemical
[11] = Stability of compound in 0.5 M NaOH assessed as 1-borono-N,N-dimethyl-N-((1-(2-(2-(2-(((2R,3R,4S,5S,6R)-3,4,5-trihydroxy-6-(hydroxymethyl)tetrahydro-2H-pyran-2-yl)oxy)ethoxy)ethoxy)ethyl)-1H-1,2,3-triazol-4-yl)methyl)methanaminium formation incubated for 72 hrs by LC-MS analysis; format: physicochemical
[12] = Stability of compound in 20 mM CH3COONH4 buffer at pH 5.8 assessed as half life incubated for 72 hrs by LC-MS analysis; format: physicochemical; details: 20 mM ammonium acetate (CH3COONH4) buffer
[13] = Stability of compound in 0.9 % saline solution assessed as half life incubated for 72 hrs by LC-MS analysis; format: physicochemical
[14] = Stability in mouse plasma measured after 1 hr by LC-HRMS analysis; format: ADME, cell-free; details: read-out: Stability
[15] = Stability of compound in 0.5 M NaOH assessed as solvolysis constant (K) incubated for 72 hrs by LC-MS analysis; format: physicochemical; design: unit not given beside the values
[16] = Stability of compound in 20 mM CH3COONH4 buffer at pH 5.8 assessed as solvolysis constant (K) incubated for 72 hrs by LC-MS analysis; format: physicochemical; design: unit not given beside the values; details: pH 5.8, 72 h
[17] = Stability of compound in 0.3 % H2O2 assessed as (2R,3R,4S,5S,6R)-2-(2-(2-(2-(4-((dimethylamino)methyl)-1H-1,2,3-triazol-1-yl)ethoxy)ethoxy)ethoxy)-6-(hydroxymethyl)tetrahydro-2H-pyran-3,4,5-triol formation incubated for 1 hrs by LC-MS analysis; format: physicochemical
[18] = Stability of compound in 0.05 M HCL assessed as half life incubated for 72 hrs by LC-MS analysis; format: physicochemical
[19] = Stability of compound in 50 mM Tris-HCL buffer at pH 7.4 assessed as 1-borono-N,N-dimethyl-N-((1-(2-(2-(2-(((2R,3R,4S,5S,6R)-3,4,5-trihydroxy-6-(hydroxymethyl)tetrahydro-2H-pyran-2-yl)oxy)ethoxy)ethoxy)ethyl)-1H-1,2,3-triazol-4-yl)methyl)methanaminium formation incubated for 72 hrs by LC-MS analysis; format: physicochemical; details: pH 7.4, 72 h
Fibroblast [20] = assay: Cytotoxicity against human fibroblast assessed as reduction in cell viability at 0.1 to 300 uM incubated for 24 to 48 hrs by MTT assay; format: toxicity, cell-based; details: dose lower 0.1 µM, time lower 24 hrs, dose upper 300 µM, time upper 48 hrs
A-375 [21] = assay: Cytotoxicity against human A-375 assessed as reduction in cell viability at 0.1 to 300 uM incubated for 72 hrs by MTT assay; format: functional, cell-based; details: dose 0.1-300 µM
U-87 MG [22] = assay: Cytotoxicity against human U-87 MG assessed as reduction in cell viability at 0.1 to 300 uM incubated for 72 hrs by MTT assay; format: functional, cell-based; details: U-87MG ATCC, dose 0.1-300 µM
A-375 [23] = assay: Cytotoxicity against human A-375 assessed as reduction in cell viability upto 100 uM incubated for 24 to 72 hrs by MTT assay; format: functional, cell-based; details: time 24-72 hrs
U-87 MG [24] = assay: Cytotoxicity against human U-87 MG assessed as reduction in cell viability at 300 uM incubated for 24 to 72 hrs by MTT assay relative to control; format: functional, U-87MG ATCC; details: time 24-72 hrs
[25] = Stability of compound in 0.5 M NaOH assessed as N,N,N-trimethyl-1-(1-((3R,4R,5S,6R)-2,4,5-trihydroxy-6-(hydroxymethyl)tetrahydro-2H-pyran-3-yl)-1H-1,2,3-triazol-4-yl)methanaminium formation incubated for 72 hrs by LC-MS analysis; format: physicochemical
[26] = Metabolic stability in mouse liver microsomes assessed as drug hydrolysis by measuring 1-borono-N,N-dimethyl-N-((1-((3R,4R,5S,6R)-2,4,5-trihydroxy-6-(hydroxymethyl)tetrahydro-2H-pyran-3-yl)-1H-1,2,3-triazol-4-yl)methyl)methanaminium formation incubated for 1 hrs by LC-MS/MS analysis; format: ADME, Microsome
A-375 [27] = assay: Cytotoxicity against human A-375 assessed as reduction in cell viability at 300 uM incubated for 24 to 72 hrs by MTT assay relative to control; format: functional; details: time 24-72 hrs
Fibroblast [28] = assay: Cytotoxicity against human fibroblast assessed as reduction in cell viability at 300 uM incubated for 24 to 72 hrs by MTT assay relative to control; format: toxicity, cell-based; details: time 24-72 hrs
Fibroblast [29] = assay: Cytotoxicity against human fibroblast assessed as reduction in cell viability at 0.1 to 300 uM incubated for 72 hrs by MTT assay; format: toxicity, cell-based; details: dose 0.1-300 µM
[30] = Stability of compound in 0.5 M NaOH assessed as 1-borono-N,N-dimethyl-N-((1-((3R,4R,5S,6R)-2,4,5-trihydroxy-6-(hydroxymethyl)tetrahydro-2H-pyran-3-yl)-1H-1,2,3-triazol-4-yl)methyl)methanaminium formation incubated for 72 hrs by LC-MS analysis; format: physicochemical
[31] = Stability of compound in 0.9 % saline solution assessed as 1-borono-N,N-dimethyl-N-((1-((3R,4R,5S,6R)-2,4,5-trihydroxy-6-(hydroxymethyl)tetrahydro-2H-pyran-3-yl)-1H-1,2,3-triazol-4-yl)methyl)methanaminium formation incubated for 72 hrs by LC-MS analysis; format: physicochemical; details: buffer
[32] = Stability of compound at pH 7.5 in phosphate buffer at 2 mg/ml; format: physicochemical
Fibroblast [33] = assay: Cytotoxicity against human fibroblast assessed as reduction in cell viability upto 100 uM incubated for 24 to 72 hrs by MTT assay; format: toxicity, cell-based; details: time 24-72 hrs
[34] = Stability of compound in 0.3 % H2O2 assessed as (3R,4R,5S,6R)-3-(4-((dimethylamino)methyl)-1H-1,2,3-triazol-1-yl)-6-(hydroxymethyl)tetrahydro-2H-pyran-2,4,5-triol formation incubated for 1 hrs by LC-MS analysis; format: physicochemical
[35] = Stability of compound in 0.05 M HCL assessed as 1-borono-N,N-dimethyl-N-((1-((3R,4R,5S,6R)-2,4,5-trihydroxy-6-(hydroxymethyl)tetrahydro-2H-pyran-3-yl)-1H-1,2,3-triazol-4-yl)methyl)methanaminium formation incubated for 72 hrs by LC-MS analysis; format: physicochemical; details: buffer
U-87 MG [36] = assay: Cytotoxicity against human U-87 MG assessed as reduction in cell viability at 0.1 to 300 uM incubated for 24 to 48 hrs by MTT assay; format: functional, cell-based; details: U-87MG ATCC, dose 0.1-300 µM, time 24-48 hrs
U-87 MG [37] = assay: Cytotoxicity against human U-87 MG assessed as reduction in cell viability upto 100 uM incubated for 24 to 72 hrs by MTT assay; format: functional, cell-based; details: U-87MG ATCC, time 24-72 hrs
A-375 [38] = assay: Cytotoxicity against human A-375 assessed as reduction in cell viability at 0.1 to 300 uM incubated for 24 to 48 hrs by MTT assay; format: functional, cell-based; details: dose 0.1-300 µM, time 24-48 hrs
[39] = Stability of compound in 20 mM CH3COONH4 buffer at pH 5.8 assessed as 1-borono-N,N-dimethyl-N-((1-((3R,4R,5S,6R)-2,4,5-trihydroxy-6-(hydroxymethyl)tetrahydro-2H-pyran-3-yl)-1H-1,2,3-triazol-4-yl)methyl)methanaminium formation incubated for 72 hrs by LC-MS analysis; format: physicochemical; details: pH 5.8, 72 h
[40] = Stability of compound in 50 mM Tris-HCL buffer at pH 7.4 assessed as 1-borono-N,N-dimethyl-N-((1-((3R,4R,5S,6R)-2,4,5-trihydroxy-6-(hydroxymethyl)tetrahydro-2H-pyran-3-yl)-1H-1,2,3-triazol-4-yl)methyl)methanaminium formation incubated for 72 hrs by LC-MS analysis; format: physicochemical; details: pH 7.4, 72 h

SMILES: C[N+](C)(Cc1cn(CCOCCOCCO[C@@H]2O[C@H](CO)[C@@H](O)[C@H](O)[C@H]2O)nn1)C[B-](F)(F)F
- Stability [1]: Stable
- Stability [2]: Stable
- Stability [3]: Stable
- K [4]: 0.005
- K [5]: 0.018
- Drug metabolism [6]: metabolite_detected
- K [7]: 0.489
- Stability [8]: Stable
- half-life [9]: 36 h
- half-life [10]: ≥ 58 h
- Stability [11]: Stable
- half-life [12]: ≥ 15.7 h
- half-life [13]: 38.4 h
- remaining at 1 h [14]: 1.2%
- K [15]: 0.019
- K [16]: 0.003
- Stability [17]: Stable
- half-life [18]: 1.42 h
- Stability [19]: Stable

SMILES: C[N+](C)(Cc1cn([C@@H]2[C@@H](O)[C@H](O)[C@@H](CO)O[C@@H]2O)nn1)C[B-](F)(F)F
- Activity (Fibroblast [20]): Non-toxic
- Activity (A-375 [21]): Active
- Activity (U-87 MG [22]): Active
- Activity (A-375 [23]): Active
- Activity (U-87 MG [24]): -15%
- Stability [25]: Stable
- K [4]: 0.017
- Drug metabolism [26]: metabolite_detected
- Activity (A-375 [27]): -15%
- K [5]: 0.038
- K [7]: 0.766
- half-life [9]: ≥ 20.9 h
- Activity (Fibroblast [28]): -15%
- Activity (Fibroblast [29]): Non-toxic
- half-life [10]: 25 h
- half-life [12]: ~0.0794 h
- half-life [13]: 18.3 h
- Stability [30]: Stable
- Stability [31]: Stable
- Stability [32]: Stable
- remaining at 1 h [14]: 4.15%
- Activity (Fibroblast [33]): Non-toxic
- Stability [34]: Stable
- K [15]: 0.016
- Stability [35]: Stable
- K [16]: 8.731
- half-life [18]: 0.904 h
- Activity (U-87 MG [36]): Active
- Activity (U-87 MG [37]): Active
- Activity (A-375 [38]): Active
- Stability [39]: Stable
- Stability [40]: Stable
